# Biological target: PD-L1 His protein / PD-1 Fc protein (Homo sapiens, UniProt Q9NZQ7)
# Test: HTRF Assay (PD-1/PD-L1 interaction)
# Type: binding
# Details: PD-L1 His 6 nM, PD-1 Fc 6 nM
# How it was run: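 HTRF: PD-L1 His (6 nM final), compound (3-fold dilutions, 20 μM to 0.001 μM final) and PD-1 Fc (6 nM final) preincubated 15 min at room temperature. Anti-human IgG-XL665 and anti-6HIS Tb cryptate (mixed at 6.7 nM and 0.35 nM) then added for 1 h at room temperature before reading.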
# Chain of PD-L1 His protein / PD-1 Fc protein (Q9NZQ7 19-238 limits assumed): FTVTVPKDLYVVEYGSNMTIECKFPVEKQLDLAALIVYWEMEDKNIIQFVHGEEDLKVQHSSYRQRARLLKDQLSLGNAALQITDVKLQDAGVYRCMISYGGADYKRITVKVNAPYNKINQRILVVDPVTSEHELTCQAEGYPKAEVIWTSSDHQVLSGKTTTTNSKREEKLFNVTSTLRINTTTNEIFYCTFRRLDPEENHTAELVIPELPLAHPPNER
row,Structure (SMILES),IC50
1,"COc1nc(-c2cccc(-c3cccc(-c4ccn5c(=O)c(CN6CCCC6CO)cnc5c4)c3Cl)c2Cl)ccc1CNC[C@@H]1CCC(=O)N1 (stereo partly drawn) [Example 153, 8-(2,2′-Dichloro-3′-(6-methoxy-5-(((((S)-5-oxopyrrolidin-2-yl)methyl)amino)methyl)pyridin-2-yl)-[1,1′-biphenyl]-3-yl)-3-((2-(hydroxymethyl)pyrrolidin-1-yl)methyl)-4H-pyrido[1,2-a]pyrimidin-4-one]",0.8 nM
2,"COc1nc(-c2cccc(-c3cccc(-c4ccn5c(=O)c(CNC(C)(C)CC(=O)O)cnc5c4)c3Cl)c2Cl)ccc1CNC[C@@H]1CCC(=O)N1 [Example 154, (S)-3-(((8-(2,2′-Dichloro-3′-(6-methoxy-5-((((5-oxopyrrolidin-2-yl)methyl)amino)-methyl)pyridin-2-yl)-[1,1′-biphenyl]-3-yl)-4-oxo-4H-pyrido[1,2-a]pyrimidin-3-yl)methyl)amino)-3-methylbutanoic acid]",0.4 nM
3,"COc1cc(-c2cccc(-c3cccc(-c4ccc(CNC[C@@H]5CCC(=O)N5)c(OC)n4)c3Cl)c2Cl)cc2c1CN(C[C@@H]1CCC(=O)N1)CC2 [Example 155, (S)-5-((6-(2,2′-Dichloro-3′-(6-methoxy-5-(((((S)-5-oxopyrrolidin-2-yl)methyl)amino)-methyl)pyridin-2-yl)-[1,1′-biphenyl]-3-yl)-8-methoxy-3,4-dihydroisoquinolin-2(1H)-yl)methyl)pyrrolidin-2-one]",0.4 nM
4,"COc1nc(-c2cccc(-c3cccc(-c4ccn5c(=O)cc(CNC[C@@H]6CCC(=O)N6)nc5c4)c3Cl)c2Cl)ccc1CNC[C@@H]1CCC(=O)N1 [Example 156, 8-(2,2′-Dichloro-3′-(6-methoxy-5-(((((S)-5-oxopyrrolidin-2-yl)methyl)amino)methyl)pyridin-2-yl)-[1,1′-biphenyl]-3-yl)-2-(((((S)-5-oxopyrrolidin-2-yl)methyl)amino)methyl)-4H-pyrido[1,2-a]pyrimidin-4-one]",1.4 nM
5,"COc1nc(-c2cccc(-c3cccc(-c4ccn5c(=O)c(CNC[C@@H]6CCC(=O)N6)cnc5c4)c3Cl)c2Cl)ccc1CN1CC(C)(O)C1 [Example 157, (S)-8-(2,2′-Dichloro-3′-(5-((3-hydroxy-3-methylazetidin-1-yl)methyl)-6-methoxypyridin-2-yl)-[1,1′-biphenyl]-3-yl)-3-((((5-oxopyrrolidin-2-yl)methyl)amino)methyl)-4H-pyrido[1,2-a]pyrimidin-4-one]",1.6 nM
6,"COc1nc(-c2cccc(-c3cccc(-c4ccn5c(=O)c(CNC[C@@H]6CCC(=O)N6)cnc5c4)c3Cl)c2Cl)ccc1CN[C@H]1C[C@H](O)C1 [Example 158, 8-(2,2′-Dichloro-3′-(5-((((1r,3r)-3-hydroxycyclobutyl)amino)methyl)-6-methoxypyridin-2-yl)-[1,1′-biphenyl]-3-yl)-3-(((((S)-5-oxopyrrolidin-2-yl)methyl)amino)methyl)-4H-pyrido[1,2-a]pyrimidin-4-one]",2 nM
7,"COc1nc(-c2cccc(-c3cccc(-c4ccn5c(=O)c(CNC[C@@H]6CCC(=O)N6)cnc5c4)c3Cl)c2Cl)ccc1CN1CC(CO)(CO)C1 [Example 159, (S)-8-(3′-(5-((3,3-Bis(hydroxymethyl)azetidin-1-yl)methyl)-6-methoxypyridin-2-yl)-2,2′-dichloro-[1,1′-biphenyl]-3-yl)-3-((((5-oxopyrrolidin-2-yl)methyl)amino)methyl)-4H-pyrido[1,2-a]pyrimidin-4-one]",1.3 nM
8,"COc1nc(-c2cccc(-c3cccc(-c4ccn5c(=O)c(CNCCCC(=O)O)cnc5c4)c3Cl)c2Cl)ccc1CNC[C@@H]1CCC(=O)N1 [Example 160, (S)-4-(((8-(2,2′-Dichloro-3′-(6-methoxy-5-((((5-oxopyrrolidin-2-yl)methyl)amino)methyl)pyridin-2-yl)-[1,1′-biphenyl]-3-yl)-4-oxo-4H-pyrido[1,2-a]pyrimidin-3-yl)methyl)amino)butanoic acid]",0.7 nM
9,"COc1nc(-c2cccc(-c3cccc(-c4ccn5c(=O)c(C6=NCC(O)CN6)cnc5c4)c3Cl)c2Cl)ccc1CNC[C@@H]1CCC(=O)N1 (stereo partly drawn) [Example 161, 8-(2,2′-Dichloro-3′-(6-methoxy-5-(((((S)-5-oxopyrrolidin-2-yl)methyl)amino)methyl)pyridin-2-yl)-[1,1′-biphenyl]-3-yl)-3-(5-hydroxy-1,4,5,6-tetrahydropyrimidin-2-yl)-4H-pyrido[1,2-a]pyrimidin-4-one]",0.1 nM
10,"COC(=O)C1CN(Cc2cnc3cc(-c4cccc(-c5cccc(-c6ccc(CNC[C@@H]7CCC(=O)N7)c(OC)n6)c5Cl)c4Cl)ccn3c2=O)C1 [Example 162, (S)-Methyl 1-((8-(2,2′-dichloro-3′-(6-methoxy-5-((((5-oxopyrrolidin-2-yl)methyl)amino)methyl)pyridin-2-yl)-[1,1′-biphenyl]-3-yl)-4-oxo-4H-pyrido[1,2-a]pyrimidin-3-yl)methyl)azetidine-3-carboxylate]",3.8 nM
11,COc1nc(-c2cccc(-c3cccc(-c4ccn5c(=O)c(CN[C@H]6CCOC[C@@H]6O)cnc5c4)c3Cl)c2Cl)ccc1CNC[C@@H]1CCC(=O)N1 [Example 163],0.8 nM
12,"COc1nc(-c2cccc(-c3cccc(-c4ccn5c(=O)c(CNC[C@@H]6CCC(=O)N6)c(C)nc5c4)c3Cl)c2Cl)ccc1CNC[C@@H]1CCC(=O)N1 [Example 164, 8-(2,2′-Dichloro-3′-(6-methoxy-5-(((((S)-5-oxopyrrolidin-2-yl)methyl)amino)methyl)pyridin-2-yl)-[1,1′-biphenyl]-3-yl)-2-methyl-3-(((((S)-5-oxopyrrolidin-2-yl)methyl)amino)methyl)-4H-pyrido[1,2-a]pyrimidin-4-one]",1.3 nM
13,"COc1nc(-c2cccc(-c3cccc(-c4ccn5c(=O)c(CN6CC[C@H](O)C6)cnc5c4)c3Cl)c2Cl)ccc1CN1CC[C@H](O)C1 [Example 165, 8-(2,2′-Dichloro-3′-(5-(((S)-3-hydroxypyrrolidin-1-yl)methyl)-6-methoxypyridin-2-yl)-[1,1′-biphenyl]-3-yl)-3-(((S)-3-hydroxypyrrolidin-1-yl)methyl)-4H-pyrido[1,2-a]pyrimidin-4-one]",0.1 nM
14,"COc1nc(-c2cccc(-c3cccc(-c4ccn5c(=O)c(CN6C[C@H](O)C[C@H]6C(=O)O)cnc5c4)c3Cl)c2Cl)ccc1CNC[C@@H]1CCC(=O)N1 [Example 166, (2S,4R)-1-((8-(2,2′-Dichloro-3′-(6-methoxy-5-(((((S)-5-oxopyrrolidin-2-yl)methyl)amino)methyl)pyridin-2-yl)-[1,1′-biphenyl]-3-yl)-4-oxo-4H-pyrido[1,2-a]pyrimidin-3-yl)methyl)-4-hydroxypyrrolidine-2-carboxylic acid]",0.1 nM
15,"COC(=O)c1cnc(-c2cnc3cc(-c4cccc(-c5cccc(-c6ccc(CNC[C@@H]7CCC(=O)N7)c(OC)n6)c5Cl)c4Cl)ccn3c2=O)[nH]1 [Example 167, methyl (S)-2-(8-(2,2′-dichloro-3′-(6-methoxy-5-((((5-oxopyrrolidin-2-yl)methyl)amino)methyl)pyridin-2-yl)-[1,1′-biphenyl]-3-yl)-4-oxo-4H-pyrido[1,2-a]pyrimidin-3-yl)-1H-imidazole-5-carboxylate]",0.5 nM
16,"COc1nc(-c2cccc(-c3cccc(-c4ccn5c(=O)c(CN6CCC[C@@]6(C)C(=O)O)cnc5c4)c3Cl)c2Cl)ccc1CNCCO [Example 168, (S)-1-((8-(2,2′-Dichloro-3′-(5-(((2-hydroxyethyl)amino)methyl)-6-methoxypyridin-2-yl)-[1,1′-biphenyl]-3-yl)-4-oxo-4H-pyrido[1,2-a]pyrimidin-3-yl)methyl)-2-methylpyrrolidine-2-carboxylic acid]",0.2 nM
17,"COc1nc(-c2cccc(-c3cccc(-c4ccn5c(=O)c(CN6CC[C@@H](O)C6)cnc5c4)c3Cl)c2Cl)ccc1CNC[C@@H]1CCC(=O)N1 [Example 169, 8-(2,2′-Dichloro-3′-(6-methoxy-5-(((((S)-5-oxopyrrolidin-2-yl)methyl)amino)methyl)pyridin-2-yl)-[1,1′-biphenyl]-3-yl)-3-(((R)-3-hydroxypyrrolidin-1-yl)methyl)-4H-pyrido[1,2-a]pyrimidin-4-one]",0.4 nM
18,"COc1nc(-c2cccc(-c3cccc(-c4ccn5c(=O)c(CNC[C@@H]6CCC(=O)N6)cnc5c4)c3Cl)c2Cl)ccc1CN1CC[C@@H](O)C1 [Example 170, 8-(2,2′-Dichloro-3′-(5-(((R)-3-hydroxypyrrolidin-1-yl)methyl)-6-methoxypyridin-2-yl)-[1,1′-biphenyl]-3-yl)-3-(((((S)-5-oxopyrrolidin-2-yl)methyl)amino)methyl)-4H-pyrido[1,2-a]pyrimidin-4-one]",0.3 nM
19,"COC(=O)C1CN=C(c2cnc3cc(-c4cccc(-c5cccc(-c6ccc(CNC[C@@H]7CCC(=O)N7)c(OC)n6)c5Cl)c4Cl)ccn3c2=O)N1 (stereo partly drawn) [Example 171, Methyl 2-(8-(2,2′-dichloro-3′-(6-methoxy-5-(((((S)-5-oxopyrrolidin-2-yl)methyl)amino)methyl)pyridin-2-yl)-[1,1′-biphenyl]-3-yl)-4-oxo-4H-pyrido[1,2-a]pyrimidin-3-yl)-4,5-dihydro-1H-imidazole-5-carboxylate]",0.2 nM
20,"COc1nc(-c2cccc(-c3cccc(-c4ccn5c(=O)c(CN6CC[C@H](C(=O)O)C6)cnc5c4)c3Cl)c2Cl)ccc1CNCCO [Example 172, (S)-1-((8-(2,2′-Dichloro-3′-(5-(((2-hydroxyethyl)amino)methyl)-6-methoxypyridin-2-yl)-[1,1′-biphenyl]-3-yl)-4-oxo-4H-pyrido[1,2-a]pyrimidin-3-yl)methyl)pyrrolidine-3-carboxylic acid]",0.3 nM
21,"N#CCCOc1cc(/C=C/c2cccc(-c3cccc(-c4ccn5c(=O)c(CNC[C@@H]6CCC(=O)N6)cnc5c4)c3Cl)c2Cl)c(Cl)cc1CN1CC[C@H](C(=O)O)C1 [Example 173, (S)-1-(5-Chloro-2-(2-cyanoethoxy)-4-((E)-2-(2,2′-dichloro-3′-(4-oxo-3-(((((S)-5-oxopyrrolidin-2-yl)methyl)amino)methyl)-4H-pyrido[1,2-a]pyrimidin-8-yl)-[1,1′-biphenyl]-3-yl)vinyl)benzyl)pyrrolidine-3-carboxylic acid]",0.4 nM
